Test results taken from ChEMBL document CHEMBL1201862, “PubChem BioAssay data set” (2004).
Values belong to the compound of their own block, whether it stands above or below them. Activity calls are given as the source filed them.

Experiments:
[1] = biological target: Lysine-specific demethylase 4C (Homo sapiens, UniProt Q9H3R0); assay: GASC-1 (JMJD2C) histone demethylase inhibitors, dose response, biochemical, DELFIA europium, cherry-picked samples (AID 488835); format: functional
Troponin, cardiac muscle = Troponin, cardiac muscle (Homo sapiens, UniProt P19429+P45379+P63316); assay: inhibitors of cardiac thin filament calcium sensitivity, dose response, biochemical, fluorescence, cardiac regulated thin filaments, triplicate IC50 (AID 504742); format: protein-complex assay
[2] = biological target: T1, Rac GTPase-activating protein 1 (Homo sapiens, UniProt Q9H0H5); assay: MgcRacGAP GTPase-activating activity inhibitors, confirmation, biochemical, ADP Hunter fluorescence, primary and confirmatory (AID 624330); format: functional
T1 sequence (Q9H0H5 whole entry): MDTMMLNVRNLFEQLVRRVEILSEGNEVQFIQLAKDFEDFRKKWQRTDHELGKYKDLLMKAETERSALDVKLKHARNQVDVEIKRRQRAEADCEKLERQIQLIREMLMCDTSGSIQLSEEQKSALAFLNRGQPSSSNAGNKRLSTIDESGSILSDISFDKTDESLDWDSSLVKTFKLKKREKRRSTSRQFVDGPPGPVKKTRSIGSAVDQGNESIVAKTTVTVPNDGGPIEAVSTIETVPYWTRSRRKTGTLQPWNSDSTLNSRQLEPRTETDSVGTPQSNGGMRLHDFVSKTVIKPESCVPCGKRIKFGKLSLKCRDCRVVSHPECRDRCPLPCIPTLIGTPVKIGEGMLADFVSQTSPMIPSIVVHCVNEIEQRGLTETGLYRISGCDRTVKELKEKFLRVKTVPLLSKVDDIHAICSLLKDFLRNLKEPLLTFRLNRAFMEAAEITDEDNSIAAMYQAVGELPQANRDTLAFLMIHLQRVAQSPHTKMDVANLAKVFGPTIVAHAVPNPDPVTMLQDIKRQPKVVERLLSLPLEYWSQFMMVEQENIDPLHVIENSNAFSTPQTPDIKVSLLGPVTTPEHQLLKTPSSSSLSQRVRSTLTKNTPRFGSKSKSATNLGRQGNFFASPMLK

[3] = biological target: Intestinal-type alkaline phosphatase (Mus musculus, UniProt P24822); assay: PubChem AID 488785; format: functional
Aspartyl aminopeptidase = biological target: T2, Aspartyl aminopeptidase (Plasmodium falciparum 3D7, UniProt Q8I2J3)
T2 sequence (Q8I2J3 whole entry): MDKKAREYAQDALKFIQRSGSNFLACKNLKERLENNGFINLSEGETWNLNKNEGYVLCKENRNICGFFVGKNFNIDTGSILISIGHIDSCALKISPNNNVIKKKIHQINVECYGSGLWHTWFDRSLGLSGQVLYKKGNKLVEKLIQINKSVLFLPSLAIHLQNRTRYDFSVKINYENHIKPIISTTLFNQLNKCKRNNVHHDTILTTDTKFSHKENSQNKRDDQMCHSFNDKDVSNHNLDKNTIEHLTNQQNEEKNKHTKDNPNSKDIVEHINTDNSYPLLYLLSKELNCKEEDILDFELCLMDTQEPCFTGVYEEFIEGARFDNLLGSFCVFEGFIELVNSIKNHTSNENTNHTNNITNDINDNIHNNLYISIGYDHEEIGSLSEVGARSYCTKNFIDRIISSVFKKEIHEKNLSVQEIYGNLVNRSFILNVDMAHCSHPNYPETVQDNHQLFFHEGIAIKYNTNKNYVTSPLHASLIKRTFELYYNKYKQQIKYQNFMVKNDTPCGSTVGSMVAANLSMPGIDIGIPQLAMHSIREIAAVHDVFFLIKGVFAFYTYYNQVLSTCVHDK

Sequence of Intestinal-type alkaline phosphatase (P24822 whole entry): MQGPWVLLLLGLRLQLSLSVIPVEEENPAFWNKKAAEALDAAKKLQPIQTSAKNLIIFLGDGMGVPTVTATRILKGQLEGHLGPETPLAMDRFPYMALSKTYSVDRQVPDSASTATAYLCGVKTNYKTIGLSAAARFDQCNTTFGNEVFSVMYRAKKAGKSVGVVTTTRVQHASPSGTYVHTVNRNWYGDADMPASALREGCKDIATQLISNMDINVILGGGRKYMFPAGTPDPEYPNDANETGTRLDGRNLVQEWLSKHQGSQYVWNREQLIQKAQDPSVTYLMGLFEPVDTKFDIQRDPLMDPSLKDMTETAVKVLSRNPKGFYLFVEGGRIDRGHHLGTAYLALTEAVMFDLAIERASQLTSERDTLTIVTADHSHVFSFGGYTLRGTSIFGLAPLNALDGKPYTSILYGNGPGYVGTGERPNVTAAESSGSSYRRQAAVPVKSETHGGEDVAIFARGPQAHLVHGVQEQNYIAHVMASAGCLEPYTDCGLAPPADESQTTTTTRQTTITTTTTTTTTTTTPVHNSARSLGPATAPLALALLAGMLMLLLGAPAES
Sequence of Lysine-specific demethylase 4C (Q9H3R0 whole entry): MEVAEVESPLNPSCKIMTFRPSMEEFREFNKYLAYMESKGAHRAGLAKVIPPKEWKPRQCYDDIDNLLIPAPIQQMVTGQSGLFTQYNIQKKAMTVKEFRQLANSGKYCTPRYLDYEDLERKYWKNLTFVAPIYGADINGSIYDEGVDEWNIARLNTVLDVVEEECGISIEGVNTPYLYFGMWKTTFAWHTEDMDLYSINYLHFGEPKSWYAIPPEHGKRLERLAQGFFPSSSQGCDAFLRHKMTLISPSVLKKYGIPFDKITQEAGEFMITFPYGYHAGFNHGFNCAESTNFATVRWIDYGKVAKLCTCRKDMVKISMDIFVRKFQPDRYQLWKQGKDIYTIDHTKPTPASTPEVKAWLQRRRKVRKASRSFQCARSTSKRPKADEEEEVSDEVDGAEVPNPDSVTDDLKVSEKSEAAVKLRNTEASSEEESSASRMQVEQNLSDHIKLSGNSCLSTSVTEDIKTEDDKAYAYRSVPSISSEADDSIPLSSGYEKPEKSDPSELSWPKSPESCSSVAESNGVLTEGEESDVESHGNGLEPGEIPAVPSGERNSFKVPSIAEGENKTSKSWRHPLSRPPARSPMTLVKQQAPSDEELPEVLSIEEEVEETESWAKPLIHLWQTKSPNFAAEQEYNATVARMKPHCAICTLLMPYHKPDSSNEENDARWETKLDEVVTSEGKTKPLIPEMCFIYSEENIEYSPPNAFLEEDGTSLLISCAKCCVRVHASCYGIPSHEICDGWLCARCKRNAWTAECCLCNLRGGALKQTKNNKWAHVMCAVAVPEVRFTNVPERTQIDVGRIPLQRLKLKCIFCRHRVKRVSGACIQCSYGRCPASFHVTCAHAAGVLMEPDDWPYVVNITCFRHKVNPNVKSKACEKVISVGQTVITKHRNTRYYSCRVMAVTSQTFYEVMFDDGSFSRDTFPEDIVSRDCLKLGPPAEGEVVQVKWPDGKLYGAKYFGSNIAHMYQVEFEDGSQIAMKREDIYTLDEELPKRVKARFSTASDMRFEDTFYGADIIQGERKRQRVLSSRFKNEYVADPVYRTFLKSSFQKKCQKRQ

Compound: Cc1cc(C)c(S(=O)(=O)Nc2cc(SCC(=O)O)c(O)c3ccccc23)cc1C
AC50 [1]: 13 µM (active)

Compound: O=C(O)c1cc(N2N=C(C(F)(F)F)/C(=C/C=C/c3ccco3)C2=O)ccc1Cl
IC50 (Troponin, cardiac muscle): > 2.65 µM (active)
IC50 [2]: 10.6 µM (active)

IC50 [3]: 9.52 µM (active)
Compound: O=C(/C=C/c1ccco1)NC(=S)Nc1cccc(C(=O)O)c1

Compound: CNCc1ccccc1Sc1ccc(O)c(O)c1
IC50 (Aspartyl aminopeptidase): 1.89 µM (active)
